The values below come from article PMC7105138, “Modeling cancer genomic data in yeast reveals selection against ATM function during tumorigenesis” (PLoS Genetics, 2020).

Positions count from the first letter of the chain named.

In series [1] the test system is Rad50 WT (Saccharomyces cerevisiae). Put plainly: EMSA. The note with it: ATP, 5 mM Mg2+, 150 mM NaCl; 25 mM Tris-Cl pH 7.6, 150 mM NaCl (also 50, 250, 300 mM), 7.5% glycerol, 1 mM beta-mercaptoethanol, 0.125% Igepal, 5 mM MgCl2, with or without 5 mM ATP; 5 nM ….
Series [2] deals with T1, Rad50 (Saccharomyces cerevisiae, UniProt P12753, D67Y).
T1 construct: full-length Rad50 with C-terminal 1xFLAG tag (DYKDDDDK), tag kept; plasmid pR50.1 (2mu, GAL-PGK-RAD50); overexpressed and purified from yeast
T1 sequence (P12753 1-1312 D67Y): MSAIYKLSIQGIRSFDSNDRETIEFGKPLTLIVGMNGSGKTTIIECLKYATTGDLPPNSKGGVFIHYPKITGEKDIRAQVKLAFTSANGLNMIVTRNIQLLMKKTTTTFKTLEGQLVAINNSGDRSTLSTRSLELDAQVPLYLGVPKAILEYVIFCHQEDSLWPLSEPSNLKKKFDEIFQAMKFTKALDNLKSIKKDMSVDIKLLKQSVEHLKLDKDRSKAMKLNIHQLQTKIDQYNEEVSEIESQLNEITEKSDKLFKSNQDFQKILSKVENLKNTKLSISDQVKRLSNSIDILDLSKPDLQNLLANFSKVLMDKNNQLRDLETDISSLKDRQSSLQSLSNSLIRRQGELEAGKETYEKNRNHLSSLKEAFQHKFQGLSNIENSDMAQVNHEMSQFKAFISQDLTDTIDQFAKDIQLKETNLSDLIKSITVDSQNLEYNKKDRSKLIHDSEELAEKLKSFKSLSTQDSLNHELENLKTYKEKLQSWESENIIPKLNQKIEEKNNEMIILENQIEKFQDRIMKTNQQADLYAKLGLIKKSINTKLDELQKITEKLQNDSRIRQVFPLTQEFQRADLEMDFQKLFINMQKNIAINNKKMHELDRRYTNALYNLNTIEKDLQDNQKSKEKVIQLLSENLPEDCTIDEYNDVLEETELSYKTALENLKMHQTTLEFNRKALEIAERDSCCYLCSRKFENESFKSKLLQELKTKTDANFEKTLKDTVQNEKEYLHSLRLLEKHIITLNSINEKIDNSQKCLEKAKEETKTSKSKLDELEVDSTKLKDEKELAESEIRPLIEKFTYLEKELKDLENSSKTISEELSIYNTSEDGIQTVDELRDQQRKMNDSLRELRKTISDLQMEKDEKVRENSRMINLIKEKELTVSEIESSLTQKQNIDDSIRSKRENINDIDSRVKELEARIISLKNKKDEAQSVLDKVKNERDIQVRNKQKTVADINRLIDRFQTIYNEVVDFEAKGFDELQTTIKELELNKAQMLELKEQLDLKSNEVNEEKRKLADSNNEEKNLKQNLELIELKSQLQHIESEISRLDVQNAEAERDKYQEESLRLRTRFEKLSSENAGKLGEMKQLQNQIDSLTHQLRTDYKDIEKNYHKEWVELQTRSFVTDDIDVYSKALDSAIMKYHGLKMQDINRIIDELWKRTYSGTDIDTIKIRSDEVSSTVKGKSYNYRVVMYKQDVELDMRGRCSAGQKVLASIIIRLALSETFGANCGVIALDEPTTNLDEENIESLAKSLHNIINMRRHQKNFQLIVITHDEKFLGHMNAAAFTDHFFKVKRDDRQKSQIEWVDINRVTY
Put plainly: nitrocellulose filter binding, […]-ATP. The following applies: 2 uM Rad50, 50 uM ATP incl. 0.1 uM alpha-32P-ATP (labelled compound), 2 mM MgCl2, pH 8.0, RT then ice.

Series [3] concerns the target T2, Rad50 (Saccharomyces cerevisiae, UniProt P12753, D67N).
T2 construct: full-length Rad50 with C-terminal 1xFLAG tag (DYKDDDDK), tag kept; plasmid pR50.1 (2mu, GAL-PGK-RAD50); overexpressed and purified from yeast
T2 sequence (P12753 1-1312 D67N): T1 sequence (P12753 1-1312 D67Y) with Y67N
Put plainly: nitrocellulose filter binding, […]-ATP. The following applies: 2 uM Rad50, 50 uM ATP incl. 0.1 uM alpha-32P-ATP (labelled compound), 2 mM MgCl2, pH 8.0, RT then ice.

The target in series [4] is T3, Rad50 (Saccharomyces cerevisiae, UniProt P12753, L1240F).
T3 construct: full-length Rad50 with C-terminal 1xFLAG tag (DYKDDDDK), tag kept; plasmid pR50.1 (2mu, GAL-PGK-RAD50); overexpressed and purified from yeast
T3 sequence (P12753 1-1312 L1240F): T1 sequence (P12753 1-1312 D67Y) with Y67D, L1240F
Put plainly: nitrocellulose filter binding, […]-ATP. The following applies: 2 uM Rad50, 50 uM ATP incl. 0.1 uM alpha-32P-ATP (labelled compound), 2 mM MgCl2, pH 8.0, RT then ice.

The target of series [5] is T4, Rad50 (Saccharomyces cerevisiae, UniProt P12753).
T4 construct: full-length Rad50 with C-terminal 1xFLAG tag (DYKDDDDK), tag kept; plasmid pR50.1 (2mu, GAL-PGK-RAD50); overexpressed and purified from yeast
T4 sequence (P12753 1-1312): T1 sequence (P12753 1-1312 D67Y) with Y67D
Briefly: nitrocellulose filter binding, […]-ATP. The note with it: 2 uM Rad50, 50 uM ATP incl. 0.1 uM alpha-32P-ATP (labelled compound), 2 mM MgCl2, pH 8.0, RT then ice.

In series [1], 83-mer dsDNA oligonucleotide returned a Kd of 0.18 µM.

Regarding `Nc1ncnc2c1ncn2[C@@H]1O[C@H](COP(=O)(O)OP(=O)(O)OP(=O)(O)O)[C@@H](O)[C@H]1O` [ATP], the ATP/Rad50 in series [2] was 0.7 ATP/Rad50; in series [3] it was 0.6 ATP/Rad50; in series [4] it was 0.4 ATP/Rad50. The “molar ratio of bound ATP to Rad50” value in series [5] was found to be 1.1 ATP/Rad50.
